Data: PMC11643578, “Cytotoxic and Antibacterial Cyclodepsipeptides from an Endophytic Fungus Fusarium avenaceum W8” (Molecules, 2024)
Values after ≈ are worked out from the molar mass of the structure shown. Read-outs that look alike come from different tables or passages of the source. Square brackets hold non-standard residues; d marks the D form. Peptide text beside a SMILES is read from it. Hica(2S) = CC(C)C[C@H](O)C(=O)O; dHica = CC(C)C[C@@H](O)C(=O)O; βAla = NCCC(=O)O

What was measured:
Type in all cases: cell-based
[1] = test system: NCI-H1944 human lung adenocarcinoma cell line; test: MTT cytotoxicity assay, NCI-H1944; settings: NCI-H1944 cells, 72 h treatment, absorbance 562 nm (reference 630 nm), read-out: IC50 Values, cytotoxicity against NCI-H1944
Method: (§1) The cytotoxicity of the compound against A549 and NCI-1944 lines was determined by using 3-(4,5-dimethyl-2-thiazolyl)-2,5-diphenyl-2-H-tetrazolium bromide (MTT). The cells were maintained in DMEM containing 10% (v/v) fetal bovine serum (FBS) and 0.4% (v/v) penicillin−streptomycin solution (10,000 units/mL penicillin and 10,000 μg/mL streptomycin, 100X) at 37 °C under 5% CO2. After 24 h of adherent cell growth, different concentrations of the compounds, positive control adriamycin (ADM), and blank control (methanol) were added to 96-well plates. After 72 h, 20 μL of MTT solution was added. The absorbance value (detection wavelength is 562 nm and reference wavelength is 630 nm) was measured on the microplate reader, and the IC50 value of each compound was calculated.

[2] = test system: A549 human lung adenocarcinoma cell line; test: MTT cytotoxicity assay, A549; settings: A549 cells, 72 h treatment, absorbance 562 nm (reference 630 nm), read-out: IC50 Values, cytotoxicity against A549
Method: as §1

[3] = test system: Staphylococcus aureus; test: Antimicrobial activity assay (MIC80, OD600), S. aureus; settings: LB broth, 128-4 μg/mL, 37 °C, 24 h; for MIC80 against S. aureus: 96-well plate
Method: (§2) Strains of S. aureus and S. cerevisiae were used for the antimicrobial activity assay, and compounds 1–7 were evaluated as described. We resuscitated the bacteria and centrifuge them at 8000 rpm for 5 min at 4 °C; we then washed the precipitate twice with PBS. We diluted it with Luria-Bertani (LB) broth medium to the concentration of 5 × 10^5 CFU/mL. Strains were grown to OD600 = 0.3 in LB broth medium and diluted 400-fold. Aliquots (200 μL) of the diluted suspensions were placed into 96-well microtiter plates with isolated compounds at concentrations of 128, 64, 32, 16, 8, and 4 μg/mL and cultured at 37 °C for 24 h. Furazolidone was the positive control and DMSO was used as the negative control. The OD600 values were used to test the antimicrobial rate for MIC80.

[4] = test system: Saccharomyces cerevisiae; test: Antimicrobial activity assay (MIC80, OD600), S. cerevisiae; settings: LB broth, 128-4 μg/mL, 37 °C, 24 h
Method: as §2

[5] = test system: Saccharomyces cerevisiae; test: Growth time-OD600 curve at MIC80, S. cerevisiae; settings: compound at its MIC80 concentration, OD600 at 8-32 h, 37 °C, n = 3
Method: (§3) The strain was grown to OD600 = 0.3 in LB broth medium and diluted 100-fold. Aliquots (200 μL) of the diluted suspensions were placed into 96-well microtiter plates, and compounds 1 and 4 at the concentration of MIC80 were cultured in the plate at 37 °C. The absorbance value was measured at OD600 at 8 h, 12 h, 16 h, 20 h, 24 h, and 32 h.

[6] = test system: Staphylococcus aureus; test: Growth time-OD600 curve at MIC80, S. aureus; settings: compound at its MIC80 concentration, OD600 at 8-32 h, 37 °C, n = 3
Method: as §3

## CC[C@H](C)[C@@H]1NC(=O)[C@H](CC(C)C)NC(=O)[C@H](CC(C)C)NC(=O)[C@H](CC(C)C)NC(=O)[C@H](CC(C)C)NC1=O [Compound 6, cyclo-(L-Ile-L-Leu-L-Leu-L-Leu-L-Leu)] (cyclo(ILLLL))
[1]
  IC50: < 50 µM
[2]
  IC50: < 50 µM

## CC[C@H](C)[C@@H]1NC(=O)[C@H](CC(C)C)NC(=O)[C@H](CC(C)C)NC(=O)CCNC(=O)[C@@H](CC(C)C)OC1=O [Compound 2, avenamide B] (cyclo([dHica][βAla]LLI))
[3]
  antimicrobial activity against S. aureus (in words): did not display strong antimicrobial activity
[4]
  antimicrobial activity against S. cerevisiae (in words): did not display strong antimicrobial activity

## CC[C@H](C)[C@H]1OC(=O)[C@H](C(C)C)N(C)C(=O)[C@@H](C(C)C)OC(=O)[C@H](C(C)C)N(C)C(=O)[C@@H](C(C)C)OC(=O)[C@H](C(C)C)N(C)C1=O [Compound 4, enniatin H]
[3]
  antimicrobial activity against S. aureus (in words): did not display strong antimicrobial activity
[4]
  antimicrobial activity against S. cerevisiae (in words): did not display strong antimicrobial activity

## CC(C)C[C@@H]1NC(=O)[C@H](CC(C)C)NC(=O)[C@H](C(C)C)NC(=O)[C@H](CC(C)C)NC(=O)[C@@H](CC(C)C)NC1=O [Compound 5, cyclo-(L-Leu-L-Leu-D-Leu-L-Leu-L-Val)] (cyclo(LL[dL]LV))
[1]
  IC50: < 50 µM
[2]
  IC50: < 50 µM

## CC(C)[C@H]1C(=O)O[C@H](C(C)C)C(=O)N(C)[C@@H](C(C)C)C(=O)O[C@H](C(C)C)C(=O)N(C)[C@@H](C(C)C)C(=O)O[C@H](C(C)C)C(=O)N1C [Compound 3, enniatin B]
[3]
  MIC80 against S. aureus: 11.08 µg/mL (≈ 17.3 µM)
[4]; 96-well plate
  MIC80 against S. cerevisiae: 16.92 µg/mL (≈ 26.4 µM)
[5]
  growth time curve of S. cerevisiae (in words): exhibited antimicrobial activity against both strains during the measuring time
[6]
  growth time curve of S. aureus (in words): exhibited antimicrobial activity against both strains during the measuring time

## COc1cccc2c1C(=O)c1c(O)c3c(c(O)c1C2=O)C[C@@](O)(C(=O)CO)C[C@@H]3O[C@H]1C[C@H](N)[C@H](O)[C@H](C)O1 [adriamycin, reference compound]
[1]; Homo sapiens
  IC50: 4.35 ± 0.27 µM
[2]; Homo sapiens
  IC50: 4.26 ± 0.17 µM

## CC(C)C[C@@H]1OC(=O)[C@H](Cc2ccccc2)NC(=O)[C@H](Cc2ccccc2)NC(=O)[C@H](Cc2ccccc2)NC(=O)[C@H](Cc2ccc(O)cc2)NC1=O [Compound 1, avenamide A] (cyclo([Hica(2S)]YFFF))
[3]
  MIC80 against S. aureus: 20.25 µg/mL (≈ 28.2 µM)
[5]
  growth time curve of S. cerevisiae (in words): exhibited antimicrobial activity against both strains during the measuring time
[6]
  growth time curve of S. aureus (in words): exhibited antimicrobial activity against both strains during the measuring time
